# Laboratory results: US5364615A (priority 1992, dated 1994)
# Where “and” joins values, the source holds several entries; their conditions need not be identical. Identical values can stand only once. Entries after “also recorded” stand apart in the source; their conditions may differ. Like-named read-outs stand apart in the source and are kept apart here.
# What was measured:
# [1] = inhaled pentamidine; cited from earlier work
# Pneumocystis carinii [2] = experiment: Randomized trial 300 mg twice per month vs 600 mg once per month (Example 7); format: in vivo, human
# Text: (§1) Five patients who developed PCP within 28 days were not evaluated. One hundred (66%) of the patients were concurrently receiving AZT, and 42 (28%) had experienced one prior episode of PCP.
# [3] = Pentamidine concentrations in lavage fluid and plasma, HPLC (Example 1); format: in vivo, human
# Description: For six inhalation patients (1, 4, 6, 7, 15, and 16) and five i.v. patients (2, 3, 5, 8, and 22), plasma samples were obtained at the completion of therapy and at 0.17, 0.5, 1, 1.5, 2, 2.5, 3, 4, 5, 6, 8, 10, 12, and 18 hours following initiation of therapy. For patients 9-14 and 17-21, trough and peak plasma samples were collected for the first three days, then weekly during therapy. Trough and peak samples were obtained on days 2, 3, 4, 5, 7, 11, and 13 for patient 2, days 2, 3, 4, 5, 7, and 12 for patient 3, days 2, 3, 4, 5, 13 and 18 for patient 5, and days 2, 3, 4, 5, and 11 for patient 8.
# [4] = human, in vivo
# Text: Chest radiographs and arterial blood gas tensions were obtained as clinically indicated.
# [5] = cited from earlier work
# Pneumocystis carinii [6] = experiment: Prevention of PCP, different dosages and regimens (Example 6); format: in vivo, human
# Text: A total of 438 participants were selected on the basis of seropositivity for HIV, and were stratified on the basis of (i) prior PCP (n=250), (ii) Kaposi's sarcoma (n=59), or (iii) ARC (n=129).
# Pneumocystis carinii [7] = experiment: Treatment of Pneumocystis carinii pneumonia, inhaled vs intravenous pentamidine (Example 1); format: in vivo, human
# [8] = format: in vivo, human
# Text: as §1
# [9] = in vivo
# [10] = human, in vivo; remark: listed apart in the source
# clinical = settings: human, serum, inhaled or intranasal, 300 mg
# Description: Adult patients having or suspected of having AIDS, and who were hospitalized for a fiberoptic bronchoscopy to evaluate diffuse infiltrates on chest radiographs, were studied. The patients were divided into two groups. […] Two patients had received one dose and the other three doses.
# Eighteen to 24 hours later both groups underwent fiberoptic bronchoscopy. After inspection of the airways, 3-5 aliquots (20 mL) of normal saline were injected and aspirated from the right middle lobe until at least 40 mL was recovered: C. […] Lavage fluid was centrifuged at 1,000×g for 10 min at 10° C. […] Briefly, proteins were precipitated with acetonitrile containing hexamidine as an internal standard. […] The lower limit of sensitivity of the assay was 2-3 ng/mL. Two sample t-test was used to compare groups: p values of <0.05 were regarded as significant.
# [11] = Serum pentamidine concentrations (Example 3); format: in vivo, human; settings: aerosol
# [12] = Toxicity during PCP treatment (Example 1)
# Pneumocystis carinii [13] = settings: cited from earlier work
# [14] = single 4 mg/kg intravenous dose, AIDS patients with P. carinii; cited from earlier work
structure (smiles),measurement,setting,value
"N=C(N)c1ccc(OCCCCCOc2ccc(C(=N)N)cc2)cc1 [pentamidine, p,p'-(pentamethylenedioxy)dibenzamidine]",microscopic airway changes,[1],no microscopic airway changes have been noted
same,attack rate of PCP at 6.38 months,"Pneumocystis carinii [2]; 300 mg once per month, previous study",18%
same,attack rate of PCP,Pneumocystis carinii [2]; 300 mg twice per month,5.6%
same,attack rate of PCP,Pneumocystis carinii [2]; 600 mg once per month,8.1%
same,patients who developed PCP,"Pneumocystis carinii [2]; mean duration 10.6 months, 10 patients",6.8%
same,attack rate of PCP at 6.38 months,"Pneumocystis carinii [2]; this trial, p<0.01 vs 300 mg once per month",3%
same,concentration at 288 h,"[3]; human, bronchoalveolar lavage fluid, inhaled or intranasal, inhalation, patient 4, day 12, read-out: mean concentration in repeat lavage",178 ± 28 ng/mL
same,concentration at 1656 h,"[3]; human, bronchoalveolar lavage fluid, inhaled or intranasal, inhalation, patient 4, day 69 following completion of therapy, read-out: mean concentration in repeat lavage",5.61 ± 0.78 ng/mL
same,concentration at 360 h,"[3]; human, bronchoalveolar lavage fluid, inhaled or intranasal, inhalation, patient 6, day 15, read-out: mean concentration in repeat lavage",63 ± 22 ng/mL
same,concentration at 360 h,"[3]; human, bronchoalveolar lavage fluid, inhaled or intranasal, inhalation, patient 12, day 15, read-out: mean concentration in repeat lavage",45.7 ± 0.9 ng/mL
same,concentration at 1128 h,"[3]; human, bronchoalveolar lavage fluid, inhaled or intranasal, inhalation, patient 14, day 47, read-out: mean concentration in repeat lavage",3 ± 0.5 ng/mL
same,concentration at 48 h,"[3]; human, bronchoalveolar lavage fluid, iv, patient 2, day 2",10.9 ± 2.9 ng/mL
same,concentration at 144 h,"[3]; human, bronchoalveolar lavage fluid, iv, patient 5, day 6",3.4 ± 0.2 ng/mL
same,Cmax,"[3]; human, plasma, iv, read-out: maximum plasma concentration during remainder of therapy, mean",497 ± 451 ng/mL
same,plasma samples without detectable drug,[3]; inhalation,approximately two-thirds of the plasma samples contained no detectable drug
same,"lavage fluid concentration, inhalation vs iv",[3]; inhalation patients higher than iv-treated,approximately 10 fold
same,Plasma max during treatment,"[3]; inhalation, highest concentration during remainder of therapy, per patient",6.1 ng/mL and 21.8 ng/mL and 7.8 ng/mL and 5.0 ng/mL and 13.0 ng/mL and 45.4 ng/mL and 12.3 ng/mL and 6.9 ng/mL and 29.5 ng/mL and 11.5 ng/mL and 79.2 ng/mL and 23.2 ng/mL
same,Mean concentration in lavage fluid,"[3]; inhalation, mean ± SD in (N) consecutive lavages, per patient",55.3 ± 17.1 ng/mL and 28.6 ± 10 ng/mL and 66.8 ± 16 ng/mL and 30.6 ± 27.5 ng/mL and 16.8 ± 7.3 ng/mL and 49.1 ± 22.5 ng/mL and 149.7 ± 87.2 ng/mL and 92.4 ± 53.9 ng/mL
same,Plasma conc. on Day 1,"[3]; inhalation, peak during inhalation (patients 1, 4, 6, 7, 15, 16) or at end of inhalation (10-14, 17)",0.0 ng/mL
same,Time to max conc.,"[3]; inhalation, plasma, per patient",5 days and 2 days and 1 days and 3 days and 14 days and 8 days
same,mean plasma concentration,"[3]; intravenous, at completion of first infusion",179 ± 185 ng/mL
same,severe adverse reactions,[4],No patient developed any severe adverse reactions
same,patients developing severe toxicity requiring discontinuation,[5]; TMP-SMX oral/parenteral or pentamidine isethionate parenteral,approximately 50%
same,side effects,[5]; parenteral pentamidine,"elevation of liver enzymes, hematologic disturbances with neutropenia and thrombocytopenia, fever, hypocalcemia, and hallucinations"
same,impaired renal function,[5]; patients receiving (parenteral) pentamidine,about 25%
same,mortality rate,Pneumocystis carinii [6]; 372 participants,1.6%
same,relapse rate,"Pneumocystis carinii [6]; 372 participants, at least one treatment",4.6%
same,deaths due to PCP,"Pneumocystis carinii [6]; ARC, group a, 30 mg",1
same,PCP Events,"Pneumocystis carinii [6]; ARC, group a, 30 mg every two weeks",2
same,PCP Events,"Pneumocystis carinii [6]; ARC, group b, 150 mg every two weeks",0
same,PCP Events,"Pneumocystis carinii [6]; ARC, group c, 300 mg every four weeks",0
same,PCP Events,"Pneumocystis carinii [6]; Kaposi's, group a, 30 mg every two weeks",0
same,PCP Events,"Pneumocystis carinii [6]; Kaposi's, group b, 150 mg every two weeks",1
same,PCP Events,"Pneumocystis carinii [6]; Kaposi's, group c, 300 mg every four weeks",0
same,relapse rate,Pneumocystis carinii [6]; at least three treatments,3.2%
same,participants experiencing relapse,Pneumocystis carinii [6]; of 372 participants,17
same,relapse rate,"Pneumocystis carinii [6]; prior PCP, at least one treatment, historical controls 24.3%",5.9%
same,relapse rate,"Pneumocystis carinii [6]; prior PCP, three or more treatments",4.2%
same,deaths due to PCP,"Pneumocystis carinii [6]; prior PCP, group a, 30 mg",1
same,PCP Events,"Pneumocystis carinii [6]; prior PCP, group a, 30 mg every two weeks",6
same,deaths due to PCP,"Pneumocystis carinii [6]; prior PCP, group b, 150 mg",3
same,PCP Events,"Pneumocystis carinii [6]; prior PCP, group b, 150 mg every two weeks",5
same,deaths due to PCP,"Pneumocystis carinii [6]; prior PCP, group c, 300 mg",1
same,PCP Events,"Pneumocystis carinii [6]; prior PCP, group c, 300 mg every four weeks",3
same,Outcome of therapy,"Pneumocystis carinii [7]; inhalation 4 mg/Kg, UltraVent, per patient",failed; also recorded: success
same,satisfactory response rate,"Pneumocystis carinii [7]; inhalation therapy, evaluable patients",90%
same,treatment failures,"Pneumocystis carinii [7]; inhalation, 4 of 13 patients",31%
same,responded satisfactorily,"Pneumocystis carinii [7]; inhalation, 9 of 13 patients",69%
same,Time to discharge,"Pneumocystis carinii [7]; inhalation, all patients in group, based on 9 successful patients",15 ± 1 days
same,satisfactory outcome (patients),"Pneumocystis carinii [7]; inhalation, of ten evaluated patients",nine had a satisfactory outcome
same,died in the hospital,"Pneumocystis carinii [7]; inhalation, one patient",7.7%
same,Time to discharge,"Pneumocystis carinii [7]; inhalation, per patient (patient 9 died on day 9)",27 days and 17 days and 16 days and 15 days and 14 days and 13 days
same,satisfactory outcome (patients),Pneumocystis carinii [7]; intravenous,Eight of nine iv-treated patients exhibited a satisfactory outcome
same,Outcome of therapy,"Pneumocystis carinii [7]; intravenous 3 mg/Kg, per patient, 3 mg/kg",success; also recorded: failed
same,Time to discharge,"Pneumocystis carinii [7]; intravenous, based on 8 successful patients",14 ± 2 days
same,responded satisfactorily,"Pneumocystis carinii [7]; intravenous, eight of nine",89%
same,relapse,"Pneumocystis carinii [7]; intravenous, four patients followed five to six months",no reported relapses
same,Time to discharge,"Pneumocystis carinii [7]; intravenous, per patient",14 days and 12 days and 18 days and 13 days and 16 days
same,deaths associated with PCP,[8]; 3 of 146,2%
same,deaths due to other causes,[8]; 9 of 146,6%
same,patients died,[8]; twelve of 146 evaluable,8%
same,"adverse systemic reactions (renal, liver, hematologic, hypoglycemia, hypotension)",[9],No adverse systemic reactions
same,coughing with larger particles,[9],most subjects began coughing within a few breaths
same,frequent adverse effect observed clinically,[10],transient airway irritation
same,concentration at 0.5 h,clinical,13 ng/mL
same,serum pentamidine concentration,[11]; 2 patients at end of therapy,22 ng/mL and 32 ng/mL
same,serum pentamidine concentration,[11]; 12/14 patients,less than 10 ng/mL
same,glucose,[12]; approximately 165 determinations,> 3.9 mmol/L
same,minor toxicity,[12]; inhalation,One inhalation patient (16) experienced minor toxicity (rash)
same,major toxicity,"[12]; inhalation, two of ten evaluable (neutropenia; both also received AZT)",20%
same,minor toxicity,"[12]; intravenous, elevated serum creatinine in three, depressed leukocyte count in one",occurred in four iv-treated patients
same,leukocyte count,"[12]; intravenous, patient 18 after ten days",6e+08 L⁻¹
same,major toxicity,"[12]; intravenous, two of nine (neutropenia, hepatotoxicity)",22%
same,change of therapy due to toxicity,"[12]; iv-treated patients, two of 19 evaluated as printed",11%
same,Pre therapy DLCO,"Pneumocystis carinii [13]; baseline, literature",59.0 percent predicted
same,Pre therapy PaO2,"Pneumocystis carinii [13]; baseline, literature",69.3 torr
same,Pre therapy Vital Capacity,"Pneumocystis carinii [13]; baseline, literature",70 percent predicted
same,"Successful Treatment W/ Change, %",Pneumocystis carinii [13]; literature,95%
same,"Successful Treatment w/o Change, %",Pneumocystis carinii [13]; literature,40%
same,Post therapy PaO2,"Pneumocystis carinii [13]; post therapy, literature (TMP-DPS: only 8 patients tested)",87.2 torr
same,Post therapy DLCO,"Pneumocystis carinii [13]; post therapy, literature",62 percent predicted
same,Post therapy Vital Capacity,"Pneumocystis carinii [13]; post therapy, literature",80 percent predicted
same,mean peak serum pentamidine concentration,[14],612 ng/mL
